# Laboratory results as given in patent US20120283245A1, “AZABICYCLO[3.1.0]HEX-2-YL COMPOUNDS, A PROCESS FOR THEIR PREPARATION AND PHARMACEUTICAL COMPOSITIONS CONTAINING THEM” (LES LABORATOIRES SERVIER, priority 2009, published 2012).
# Structures can show the parent of a compound that is named as a salt.
# Biological target: T1, type H3 mouse histamine receptors (Mus musculus, UniProt P58406)
# T1 construct: expressed in transfected cells; host or cells: CHO cells
# Assay: Affinity for mouse H3 receptors (iodoproxyfan displacement, transfected CHO cells)
# Type: binding
# Settings: mouse H3 receptors transfected into CHO cells, iodoproxyfan radioligand, 24 h at room temperature
# Description: The purpose is to measure the affinity of compounds of the present invention for type H3 mouse histamine receptors transfected into CHO cells. The compounds are incubated at different concentrations in the presence of transfected CHO cells, iodoproxyfan as a radiolabelled ligand which is specific for H3 receptors, and scintillant beads for 24 h at room temperature. At the end of the incubation, the displacement of the specific binding of the ligand by the compounds under test is measured, and the affinity constants of those compounds for mouse H3 receptors are determined
# T1 sequence (P58406 whole entry): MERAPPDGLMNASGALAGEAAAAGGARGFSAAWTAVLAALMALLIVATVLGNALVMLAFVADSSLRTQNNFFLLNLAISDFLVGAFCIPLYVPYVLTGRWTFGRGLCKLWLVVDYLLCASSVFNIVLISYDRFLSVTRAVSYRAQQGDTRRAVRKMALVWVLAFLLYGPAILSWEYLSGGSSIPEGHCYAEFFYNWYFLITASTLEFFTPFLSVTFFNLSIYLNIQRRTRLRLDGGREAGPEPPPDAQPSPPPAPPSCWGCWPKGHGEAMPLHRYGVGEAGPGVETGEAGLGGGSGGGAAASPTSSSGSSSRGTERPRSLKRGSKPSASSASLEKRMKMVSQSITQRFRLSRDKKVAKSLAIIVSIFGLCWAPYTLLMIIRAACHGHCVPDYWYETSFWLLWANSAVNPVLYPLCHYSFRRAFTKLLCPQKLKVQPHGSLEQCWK
row,Ki [nM],Compound
1,2400,"NC(=O)c1ccc(OCCCN2CC[C@H]3C[C@H]32)cc1 (racemic) [Example 1, 4-[3-(cis-2-Azabicyclo[3.1.0]hex-2-yl)propoxy]-benzamide hydrochloride]"
2,180,"CN(C)C(=O)c1ccc(OCCCN2CC[C@H]3C[C@H]32)cc1 (racemic) [Example 5, 4-{3-(cis-2-Azabicyclo[3.1.0]hex-2-yl)propoxy}-N,N-dimethylbenzamide hydrochloride]"
3,750,"CC(=O)Nc1ccc(OCCCN2CC[C@H]3C[C@H]32)cc1 (racemic) [Example 3, N-(4-{3-(cis-2-azabicyclo[3.1.0]hex-2-yl)propoxy}phenyl)acetamide hydrochloride]"
4,390,"COCC(=O)Nc1ccc(OCCCN2CC[C@H]3C[C@H]32)cc1 (racemic) [Example 9, N-(4-{3-(cis-2-azabicyclo[3.1.0]hex-2-yl)propoxy}phenyl)-2-methoxy-acetamide hydrochloride]"

# Biological target: T2, type H3 central histamine receptors (Mus musculus, UniProt P58406)
# T2 construct: from tissue; host or cells: brain of living NMRI mice (oral dosing)
# Assay: Cerebral levels of Nτ-methylhistamine in the NMRI mouse (ex vivo)
# Settings: 3 mg/kg PO, one hour after treatment, versus carrier controls
# Description: The purpose of this study, which was carried out in accordance with the method of Taylor et al. (Biochem. Pharm., 1992, 44, 1261-1267), is to evaluate the ex vivo activity of the compounds of the present invention as antagonists of type H3 central histamine receptors. […] An increase in the cerebral concentrations of N^τ-methylhistamine indicates an increase in to the turn-over of histamine by blockage of the type H3 central histamine receptors. NMRI mice (18-20 g) are treated with compounds of the present invention or with their carrier (20 ml/kg) by the oral route. One hour after the pharmacological treatment, the animals are sacrificed; the brains are removed, frozen in liquid nitrogen, weighed and homogenised in 0.1N HClO4 at 4° C. The homogenised products are centrifuged (15000 g, 17 mins., 4° C.). The supernatants are recovered and divided into aliquots. The aliquots are frozen in liquid nitrogen and stored at −80° C. until they are analysed. Determination of the cerebral levels of N^τ-methylhistamine is carried out by capillary electrophoresis. The tissue levels of N^τ-methylhistamine are expressed in μg/g of fresh brain. The comparison of the cerebral levels of N^τ-methylhistamine between animals treated with the carrier (controls) and animals treated with compounds of the present invention is carried out by single-factor variance analysis followed, if necessary, by a complementary analysis (Dunnett's test).
# T2 sequence (P58406 whole entry): as above
row,Compound,increase of endogenous cerebral concentrations of Nτ-methylhistamine
1,"CC(=O)Nc1ccc(OCCCN2CC[C@H]3C[C@H]32)cc1 (relative stereo) [Example 3, N-(4-{3-(cis-2-azabicyclo[3.1.0]hex-2-yl)propoxy}phenyl)acetamide hydrochloride]",+272%
2,"CCN(CC)C(=O)c1ccc(OCCCN2CC[C@H]3C[C@H]32)cc1.Cl (relative stereo) [Example 6, 4-{3-(cis-2-Azabicyclo[3.1.0]hex-2-yl)propoxy}-N,N-diethylbenzamide hydrochloride]",+225%
3,"CC(=O)Nc1ccc(OCCN2CC[C@H]3C[C@H]32)cc1.Cl (relative stereo) [Example 4, N-(4-{2-(cis-2-azabicyclo[3.1.0]hex-2-yl)ethoxy}phenyl)acetamide hydrochloride]",+221%

# Results, then the molecule that gave them:
row,increase of endogenous cerebral concentrations of Nτ-methylhistamine,Compound
1,+250%,"COCC(=O)Nc1ccc(OCCCN2CC[C@H]3C[C@H]32)cc1 (relative stereo) [Example 9, N-(4-{3-(cis-2-azabicyclo[3.1.0]hex-2-yl)propoxy}phenyl)-2-methoxy-acetamide hydrochloride]"
2,+276%,"CC(=O)N(C)c1ccc(OCCCN2CC[C@H]3C[C@H]32)cc1.Cl (relative stereo) [Example 8, N-(4-{3-(cis-2-azabicyclo[3.1.0]hex-2-yl)propoxy}phenyl)-N-methyl-acetamide hydrochloride]"
3,+377%,"CNC(=O)c1ccc(OCCCN2CC[C@H]3C[C@H]32)cc1.Cl (relative stereo) [Example 7, 4-{3-(cis-2-Azabicyclo[3.1.0]hex-2-yl)propoxy}-N-methylbenzamide hydrochloride]"
